From patent US9393222B2, “Use of HDAC and/or DNMT inhibitors for treatment of ischemic injury” (The Trustees of the University of Pennsylvania, priority 2004, dated 2016)

Experiments:
[1] = test system: myocardial ischemia-reperfusion injury; assay: Mouse myocardial ischemia-reperfusion (45 min LAD coronary artery occlusion, 24 h reperfusion), infarct size/area at risk; type: in vivo, mice
Experimental: Mice were injected with 5-aza-2′dC or saline, then subjected to ischemia. […] Both visual blanching and ST segment elevation on continuous ECG display confirmed myocardial ischemia. After 45 minutes, the PE-10 tubing was removed, permitting reperfusion. The sternotomy wound was closed in two layers with 4-0 Vicryl (Ethicon, Inc., Sommerville, N.J.) and the mouse extubated. 24 hours later, the mice were sacrificed, and infarcted and at-risk myocardial tissue was quantitated to determine infarct size.
The volume of viable myocardium remaining was determined by incubation of the tissue with 2% triphenyltetrazolium chloride: mice were euthanized by CO2 inhalation, the hearts were removed, and the aorta cannulated with a 21-gauge blunt-ended needle. Hearts were perfused with 3 ml of phosphate buffered saline solution, followed by 3 ml of 1% (2,3,5)-triphenyltetrazolium (TTC) at 37° C. The hearts were frozen at −80° C. for 20 minutes and cut into 1.5-mm slices. Each slice was individually weighed and photographed with incident light on both sides with a Leica DC200 CCD camera and MZ16 stereomicroscope (Leica Microsystems, Inc.) Infarct area was determined by visualizing TTC precipitate-excluded areas using NIH Image J software.
The volume of tissue at risk for ischemic injury (i.e. tissue lacking normal blood flow during the occlusion) was assessed by injection of the mice with FluoSphere 15-micron fluorescent microspheres (Molecular Probes/Invitrogen, Eugene, Oreg.) in the ascending aorta (clamped distally) after re-ligation of the left anterior descending coronary artery. The heart was sectioned, and fluorescence measured by cutting the tissue into 100 μm slices and determining the area of microsphere perfused cardiac tissue (perfused tissue) and the area excluded from microspheres (area at risk).
The volume of necrotic tissue was divided by the volume of tissue at risk for ischemic injury, to obtain the infarct size. Infarct size in the drug-treated groups was compared to the infarct size in the vehicle-treated group to determine the relative reduction in injury reported in the Table.
To ascertain the effect of DNMT inhibition on ischemic injury, mice were injected in the left ventricle with either the DNMT inhibitor 5-aza-2-deoxycytidine (5-aza-2′dC) or saline (negative control), then cardiac ischemia was induced by occlusion of the left anterior descending coronary artery for 45 minutes. The hearts were re-perfused for 24 hours, and the mice were sacrificed.
Mice were administered either the HDAC inhibitor TSA or vehicle (DMSO) alone, in the left ventricle. Ischemia was induced by occlusion of the left anterior descending coronary artery for 45 minutes, and mice were sacrificed following a 24-hour reperfusion period. The volume of infarcted and at-risk myocardial tissue was quantitated as described for Example 1.
To further characterize the effect of HDAC inhibitors and DNMT inhibitors on ischemic injury, a larger study was conducted, in which the HDAC inhibitor was added at several time points. In addition, a different HDAC inhibitor, Scriptaid (BioMol, Plymouth Meeting, Pa.), was tested, together with its corresponding negative control compound, Nullscript (Biomol). Ischemia was induced, and amounts of viable and necrotic tissue measured, as described for Example 1. A total of 217 mice were utilized in this Example, distributed as follows: Saline=38; DMSO=45; Nullscript=11; TSA-T1=31; TSA-T2=25; TSA-T3=15; Scriptaid=25; 5aza2′dC=27. […] In addition, HDAC inhibitors were effective when administered either before ischemia or 1 hour after ischemia.

[2] = test system: histone H3 acetylation (acetyl-Lys9 H3); assay: Histone acetylation in ischemic myocardium, acid/urea gel and anti-acetyl H3 Western blot; type: in vivo, mice; settings: pre-treatment (1 hour before ischemia)
Experimental: Cells were lysed in Triton X/deoxycholate buffer (20 millimolar [mM] HEPES, pH 7.2, 1% Triton X-100, 1% sodium deoxycholate, 100 mM sodium chloride, 50 mM sodium fluoride, 5 mM EDTA, 100 μM sodium molybdate, with protease inhibitors), and insoluble material was removed by a 15 minute (min) centrifugation in a microfuge, and the supernatant was subjected to 100,000×g, […] centrifugation. The pellet was extracted with 9 M urea, and the resulting pellet extracted with 0.3 M HCl.
40 centimeter (cm) acetic acid/urea gels were prepared as follows: The separating gel (0.75 millimeter [mm] thick) contained 15% acrylamide/0.2% methylenebisacrylamide, 4 molar (M) urea, and 5% acetic acid. The stacking gel contained 7.5% acrylamide/0.1% methylenebisacrylamide, 8 M urea, and 5% acetic acid. Proteins were solubilized in sample buffer (8 M urea, 5% acetic acid, 5% 2-mercaptoethanol, 25 milligram per milliliter (mg/ml) protamine sulfate, with methyl green) and loaded onto gels that had been pre-electrophoresed to a constant current and scavenged with […] cysteamine (Sigma-Aldrich). […]
To determine the effect of ischemia and HDAC inhibitors on histone acetylation, ischemia was induced in mice, as described in Example 1, and the degree of histone acetylation in myocardium was determined Histone acetylation was reduced in response to ischemia (FIG. 1).

[3] = time of treatment not given in Table 3
[4] = T1: treatment 1 hour before ischemia
[5] = T2: treatment 1 hour after ischemia
[6] = T3: treatment 12 hours after ischemia

SMILES: Nc1ncn([C@H]2C[C@H](O)[C@@H](CO)O2)c(=O)n1 [5-aza-2′dC, 5-aza-2-deoxycytidine]
- reduction of infarct size vs saline ([1]; mice, injected in left ventricle before 45 min LAD occlusion, 24 h reperfusion): 69.6%
- Ratio of infarct size/area at risk ([1]; mice, injected in left ventricle before 45 min LAD occlusion, 24 h reperfusion (Table 1)): 10.3%
- % decrease (w.r.t. DMSO) [1, 3]: 71.40%
- Infarct size/area at risk (±SEM) [1, 3]: 10.3% ± 0.03%

SMILES: O=C(CCCCCN1C(=O)c2cccc3cccc(c23)C1=O)NO [Scriptaid]
- % decrease (w.r.t. DMSO) [1, 4]: 44.20%
- Infarct size/area at risk (±SEM) [1, 4]: 21.2% ± 0.33%

SMILES: O=C(CCCN1C(=O)c2cccc3cccc(c23)C1=O)NO [Nullscript]
- Infarct size/area at risk (±SEM) [1, 3]: 38.0% ± 0.56%

SMILES: CC(/C=C/C(=O)NO)=C\[C@@H](C)C(=O)c1ccc(N(C)C)cc1 [TSA, trichostatin A]
- % decrease (w.r.t. DMSO) [1, 4]: 48.30%
- Infarct size/area at risk (±SEM) [1, 4]: 18.6% ± 0.04%
- % decrease (w.r.t. DMSO) [1, 5]: 55.60%
- Infarct size/area at risk (±SEM) [1, 5]: 16.0% ± 0.04%
- % decrease (w.r.t. DMSO) [1, 6]: 8.30%
- Infarct size/area at risk (±SEM) [1, 6]: 33.0% ± 0.05%
- reduction in infarct size vs DMSO vehicle ([1]; mice, administered in left ventricle, 45 min LAD occlusion, 24 h reperfusion): 48.3%
- Ratio of infarct size/area at risk ([1]; mice, administered in left ventricle, 45 min LAD occlusion, 24 h reperfusion (Table 2)): 18.6%
- effect on ischemia-induced reduction in histone acetylation [2]: partially prevented the reduction in histone acetylation
